As a reminder, the IC50 is the point on the concentration scale where inhibition reaches its midpoint.

For the assay, the target named is T1, KDM5A (Homo sapiens, UniProt P29375).
T1 construct: Full length KDM5A enzyme was expressed and purified inhouse; made in house
Description: KDM5 enzyme assay, KDM5A HTRF (Example 463). It is filed as biochemical. To be noted: compounds of Examples 1-432; read-out: Example 463 Assay KDM5A HTRF IC50. (In TR-FRET formats the signal depends on donor and acceptor labels being close together.)

T1 sequence (P29375 whole entry): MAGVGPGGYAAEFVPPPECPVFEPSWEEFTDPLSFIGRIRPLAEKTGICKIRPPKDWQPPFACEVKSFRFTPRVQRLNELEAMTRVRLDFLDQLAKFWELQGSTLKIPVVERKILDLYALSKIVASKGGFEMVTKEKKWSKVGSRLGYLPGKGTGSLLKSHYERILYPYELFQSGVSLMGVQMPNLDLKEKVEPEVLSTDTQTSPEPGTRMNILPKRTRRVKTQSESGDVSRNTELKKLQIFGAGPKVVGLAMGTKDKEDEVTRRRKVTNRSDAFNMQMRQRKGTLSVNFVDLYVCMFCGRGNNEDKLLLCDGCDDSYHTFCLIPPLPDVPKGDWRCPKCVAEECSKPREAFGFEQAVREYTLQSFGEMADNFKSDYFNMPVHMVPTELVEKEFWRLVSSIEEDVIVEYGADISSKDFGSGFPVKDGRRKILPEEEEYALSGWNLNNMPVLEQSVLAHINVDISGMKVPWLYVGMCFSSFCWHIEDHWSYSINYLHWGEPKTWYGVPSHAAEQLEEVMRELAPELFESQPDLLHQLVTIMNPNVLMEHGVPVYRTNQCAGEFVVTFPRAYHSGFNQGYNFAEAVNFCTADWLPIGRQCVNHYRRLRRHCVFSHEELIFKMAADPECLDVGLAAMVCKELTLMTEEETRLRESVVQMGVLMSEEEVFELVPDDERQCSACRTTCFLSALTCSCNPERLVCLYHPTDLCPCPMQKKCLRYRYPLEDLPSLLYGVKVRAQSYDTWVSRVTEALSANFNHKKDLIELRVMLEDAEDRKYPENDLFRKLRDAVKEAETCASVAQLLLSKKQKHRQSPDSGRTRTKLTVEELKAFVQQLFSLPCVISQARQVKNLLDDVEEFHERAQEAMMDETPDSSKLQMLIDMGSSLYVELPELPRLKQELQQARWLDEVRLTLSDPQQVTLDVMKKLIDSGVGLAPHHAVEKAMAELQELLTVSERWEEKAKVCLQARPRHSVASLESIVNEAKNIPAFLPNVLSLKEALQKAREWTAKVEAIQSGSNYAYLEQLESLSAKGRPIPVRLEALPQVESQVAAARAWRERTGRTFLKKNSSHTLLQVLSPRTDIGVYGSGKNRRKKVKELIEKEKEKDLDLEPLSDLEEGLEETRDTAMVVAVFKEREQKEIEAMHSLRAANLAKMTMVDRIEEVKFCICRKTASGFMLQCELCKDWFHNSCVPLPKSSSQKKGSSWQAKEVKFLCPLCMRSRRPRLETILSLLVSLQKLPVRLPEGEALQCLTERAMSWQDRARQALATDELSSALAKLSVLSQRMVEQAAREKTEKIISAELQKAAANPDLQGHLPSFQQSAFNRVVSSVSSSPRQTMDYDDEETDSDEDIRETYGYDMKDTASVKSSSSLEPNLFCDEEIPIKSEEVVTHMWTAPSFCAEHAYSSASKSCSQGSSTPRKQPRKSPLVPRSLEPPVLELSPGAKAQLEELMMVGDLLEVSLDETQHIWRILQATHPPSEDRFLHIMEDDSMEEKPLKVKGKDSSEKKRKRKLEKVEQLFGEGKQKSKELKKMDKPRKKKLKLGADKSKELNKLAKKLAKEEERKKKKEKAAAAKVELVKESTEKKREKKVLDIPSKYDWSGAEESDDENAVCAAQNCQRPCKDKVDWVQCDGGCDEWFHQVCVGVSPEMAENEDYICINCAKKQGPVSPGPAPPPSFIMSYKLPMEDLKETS

Take `CC(C)c1c(-c2ccnn2CC2CC2)[nH]c2c(C#N)cnn2c1=O` (single isomer, unassigned) [Example 15, 5-(1-(cyclopropylmethyl)-1H-pyrazol-5-yl)-6-isopropyl-7-oxo-4,7-dihydropyrazolo[1,5-a]pyrimidine-3-carbonitrile]: the IC50 turned out to be 47 nM.

For `CC(C)c1c(-c2ccn(CC3CC3)n2)[nH]c2c(C#N)cnn2c1=O` (single isomer, unassigned) [Example 16, 5-(1-(cyclopropylmethyl)-1H-pyrazol-3-yl)-6-isopropyl-7-oxo-4,7-dihydropyrazolo[1,5-a]pyrimidine-3-carbonitrile], the IC50 turned out to be 11 nM.

For `CC(C)NC(=O)c1ccc(-c2[nH]c3c(C#N)cnn3c(=O)c2C(C)C)cc1` [Compound 345], the IC50 was 140 nM.

For `CC(C)c1c(-c2ccc(N3CCN(C)CC3)cc2)[nH]c2c(C#N)cnn2c1=O` [Compound 346], the IC50 worked out at 40 nM.

Consider `CC(C)c1c(-c2cc(Cl)cc(C#N)c2)[nH]c2c(C#N)cnn2c1=O` [Compound 347], for which the IC50 turned out to be 24 nM.

For `CC(C)c1c(-c2cccc(CNS(C)(=O)=O)c2)[nH]c2c(C#N)cnn2c1=O` [Compound 348], the IC50 is 14 nM.

Turning to `CC(C)c1c(-c2cccc(-c3ccn[nH]3)c2)[nH]c2c(C#N)cnn2c1=O` [Compound 349], the IC50 worked out at 14 nM.

On to `CC(C)c1c(-c2ccc(S(C)(=O)=O)cc2)[nH]c2c(C#N)cnn2c1=O` [Compound 350], for which the IC50 came out at 20 nM.

Take `CC(C)c1c(-c2ccc(C(=O)NC3CC3)cc2)[nH]c2c(C#N)cnn2c1=O` [Compound 351]: the IC50 stood at 27 nM.

As to `CC(C)c1c(-c2cnn(CCF)c2)[nH]c2c(C#N)cnn2c1=O` [Compound 352], the IC50 was 27 nM.

Take `CC(C)c1c(-c2cccc(-c3ccccc3)c2)[nH]c2c(C#N)cnn2c1=O` [Compound 353]: the half-inhibitory concentration (IC50) was found to be 14 nM.

For `CC(C)c1c(-c2ccc(C(F)(F)F)c(C3CC3)c2)[nH]c2c(C#N)cnn2c1=O` [Compound 354], the IC50 turned out to be 77 nM.

As for `CC(C)c1c(-c2cccc(OCC3CC3)c2)[nH]c2c(C#N)cnn2c1=O` [Compound 355], the IC50 was 40 nM.

As to `CC(C)c1c(-c2cccc(OCc3ccccc3)c2)[nH]c2c(C#N)cnn2c1=O` [Compound 356], the IC50 was 44 nM.

For `CC(C)c1c(-c2cccc(CN3CCOCC3)c2)[nH]c2c(C#N)cnn2c1=O` [Compound 357], the IC50 was 22 nM.

On to `CC(C)c1c(-c2cccc(COc3ccccc3)c2)[nH]c2c(C#N)cnn2c1=O` [Compound 358], for which the half-inhibitory concentration (IC50) is 25 nM.

For the compound `CC(C)c1c(-c2cnn(-c3cccc(F)c3)c2)[nH]c2c(C#N)cnn2c1=O` [Compound 359], the IC50 came to 20 nM.

For the compound `CC(C)c1c(/C=C/C2CC2)[nH]c2c(C#N)cnn2c1=O` [Compound 360], the IC50 is 28 nM.

With `CC(C)c1c(-c2ccc(C(F)(F)F)nc2)[nH]c2c(C#N)cnn2c1=O` [Compound 361], the half-maximal inhibitory concentration (IC50) came out at 52 nM.

`CC(C)c1c(-c2cnn(-c3ccc(F)cc3)c2)[nH]c2c(C#N)cnn2c1=O` [Compound 362]: the IC50 turned out to be 24 nM.

For `Cc1nc(C)c(-c2[nH]c3c(C#N)cnn3c(=O)c2C(C)C)s1` [Compound 363], the IC50 stood at 25 nM.

As to `CCCn1cc(-c2[nH]c3c(C#N)cnn3c(=O)c2C(C)C)cn1` [Compound 364], the IC50 is 18 nM.

For `CCCCn1cc(-c2[nH]c3c(C#N)cnn3c(=O)c2C(C)C)cn1` [Compound 365], the IC50 was determined as 18 nM.

Take `CC(C)c1c(-c2cnn(CCNc3ccccc3)c2)[nH]c2c(C#N)cnn2c1=O` [Compound 366]: the IC50 was found to be 18 nM.

As for `CC(C)c1c(-c2ccc(C(N)=O)cc2)[nH]c2c(C#N)cnn2c1=O` [Compound 367], the IC50 was 25 nM.

As to `CNC(=O)c1ccc(-c2[nH]c3c(C#N)cnn3c(=O)c2C(C)C)cc1` [Compound 368], the IC50 stood at 75 nM.

`CNC(=O)c1ccc(-c2[nH]c3c(C#N)cnn3c(=O)c2C(C)C)cc1F` [Compound 369]: the IC50 amounted to 85 nM.

`CC(C)c1c(-c2cnn(CCN3CC(F)(F)C3)c2)[nH]c2c(C#N)cnn2c1=O` [Compound 370]: the IC50 stood at 8 nM.

Consider `CC(C)c1c(-c2cnn(CCN3CCC(F)(F)C3)c2)[nH]c2c(C#N)cnn2c1=O` [Compound 371], for which the IC50 was determined as 11 nM.

Consider `CC(C)c1c(-c2cnn(CCNCC(F)(F)F)c2)[nH]c2c(C#N)cnn2c1=O` [Compound 372], for which the IC50 worked out at 15 nM.

As to `C/C=C/c1[nH]c2c(C#N)cnn2c(=O)c1C(C)C` [Compound 373], the IC50 worked out at 24 nM.

With `CC(=O)Nc1cccc(-c2[nH]c3c(C#N)cnn3c(=O)c2C(C)C)c1` [Compound 374], the IC50 is 38 nM.

`CC(C)c1c(-c2cccc(NS(C)(=O)=O)c2)[nH]c2c(C#N)cnn2c1=O` [Compound 375]: the IC50 was found to be 19 nM.

Take `CC(C)c1c(-c2ccc(C(=O)N3CCOCC3)cc2)[nH]c2c(C#N)cnn2c1=O` [Compound 376]: the IC50 came out at 19 nM.

On to `CC(=O)N1CCN(c2ccc(-c3[nH]c4c(C#N)cnn4c(=O)c3C(C)C)cc2)CC1` [Compound 377], for which the IC50 was determined as 22 nM.

As to `CC(C)c1c(-c2cnn(CC(F)F)c2)[nH]c2c(C#N)cnn2c1=O` [Compound 378], the half-inhibitory concentration (IC50) came out at 14 nM.

For `CC(C)c1ccc(-c2[nH]c3c(C#N)cnn3c(=O)c2C(C)C)o1` [Compound 379], the IC50 amounted to 11 nM.

With `CC(C)c1c(-c2cnn(C3CCC(F)(F)C3)c2)[nH]c2c(C#N)cnn2c1=O` (stereo not drawn) [Compound 380], the IC50 is 48 nM.

As for `CC(C)c1c(-c2cnn([C@H]3CC[C@@H](O)C3)c2)[nH]c2c(C#N)cnn2c1=O` [Compound 381], the IC50 came out at 30 nM.

`CC(C)c1c(-c2cnn([C@H]3CC[C@H](O)C3)c2)[nH]c2c(C#N)cnn2c1=O` [Compound 382]: the IC50 came out at 48 nM.

On to `CC(C)c1c(-c2cccc(-c3cn[nH]c3)c2)[nH]c2c(C#N)cnn2c1=O` [Compound 383], for which the IC50 is 31 nM.

`CC(C)c1c(-c2ccc(Br)o2)[nH]c2c(C#N)cnn2c1=O` [Compound 384]: the IC50 is 13 nM.

As for `CC(C)c1c(-c2cccc(Nc3ccccc3)c2)[nH]c2c(C#N)cnn2c1=O` [Compound 385], the IC50 stood at 21 nM.

As for `Cc1ncc(-c2[nH]c3c(C#N)cnn3c(=O)c2C(C)C)s1` [Compound 386], the IC50 turned out to be 12 nM.

Take `CC(C)c1c(-c2cccc(C#Cc3ccccc3)c2)[nH]c2c(C#N)cnn2c1=O` [Compound 387]: the IC50 was 130 nM.

Turning to `CC(C)c1c(-c2cccc(CCc3ccccc3)c2)[nH]c2c(C#N)cnn2c1=O` [Compound 388], the IC50 turned out to be 25 nM.

Regarding `CC(C)c1c(-c2cnn(C3CCC(F)C3)c2)[nH]c2c(C#N)cnn2c1=O` (stereo not drawn) [Compound 389], the IC50 is 33 nM.

Regarding `COCC(C)(C)n1cc(-c2[nH]c3c(C#N)cnn3c(=O)c2C(C)C)cn1` [Compound 390], the IC50 is 55 nM.

Take `C=CC(=O)N1CC(n2cc(-c3[nH]c4c(C#N)cnn4c(=O)c3C(C)C)cn2)C1` [Compound 391]: the IC50 was determined as 11 nM.

Regarding `CCC(=O)N1CC(n2cc(-c3[nH]c4c(C#N)cnn4c(=O)c3C(C)C)cn2)C1` [Compound 392], the IC50 is 20 nM.

As to `CC(C)c1c(-c2ccc(=O)[nH]c2)[nH]c2c(C#N)cnn2c1=O` [Compound 393], the IC50 was found to be 12 nM.

As to `CC(C)c1c(-c2cccc(/C=C/c3ccccc3)c2)[nH]c2c(C#N)cnn2c1=O` [Compound 394], the IC50 amounted to 20 nM.

Take `CC(C)c1c(-c2ccc(N3CCNCC3)cc2)[nH]c2c(C#N)cnn2c1=O` [Compound 395]: the IC50 was found to be 10 nM.

On to `CC(C)c1c(-c2cnn(C(C)(C)CF)c2)[nH]c2c(C#N)cnn2c1=O` [Compound 396], for which the IC50 worked out at 34 nM.

As to `CC(C)c1c(-c2c[nH]nc2C(F)(F)F)[nH]c2c(C#N)cnn2c1=O` [Compound 397], the IC50 was 32 nM.

For `Cc1cc(C)cc(-c2[nH]c3c(C#N)cnn3c(=O)c2C(C)C)c1` [Compound 398], the IC50 was 41 nM.

In the case of `CC(C)c1c(-c2ccc(S(=O)(=O)N3CCOCC3)cc2)[nH]c2c(C#N)cnn2c1=O` [Compound 399], the IC50 was found to be 54 nM.

For the compound `CC(C)c1c(-c2cccc(C(=O)N3CCN(C)CC3)c2)[nH]c2c(C#N)cnn2c1=O` [Compound 400], the IC50 is 35 nM.

As for `CC(C)c1c(-c2cccc(C(C)(C)O)c2)[nH]c2c(C#N)cnn2c1=O` [Compound 401], the IC50 amounted to 39 nM.

Consider `Cc1nn(C(C)C)cc1-c1[nH]c2c(C#N)cnn2c(=O)c1C(C)C` [Compound 402], for which the IC50 stood at 58 nM.

In the case of `Cc1c(-c2[nH]c3c(C#N)cnn3c(=O)c2C(C)C)cnn1C(C)C` [Compound 403], the IC50 was determined as 57 nM.

Take `C=CC(C)c1c(-c2ccccc2)[nH]c2c(C#N)cnn2c1=O` (stereo not drawn) [Compound 404]: the IC50 turned out to be 18 nM.

Turning to `CC(C)c1c(-c2cc(C3CC3)n[nH]2)[nH]c2c(C#N)cnn2c1=O` [Compound 405], the IC50 came out at 12 nM.

Regarding `COC(=O)c1cc(-c2[nH]c3c(C#N)cnn3c(=O)c2C(C)C)c[nH]1` [Compound 406], the IC50 came to 15 nM.

In the case of `CC(C)c1c(-c2cc(C3CC3)nn2C(C)C)[nH]c2c(C#N)cnn2c1=O` [Compound 407], the IC50 is 48 nM.

Take `CC(C)c1c(-c2cc(C3CC3)n(C(C)C)n2)[nH]c2c(C#N)cnn2c1=O` [Compound 408]: the IC50 amounted to 150 nM.

Take `COC(=O)c1cc(-c2[nH]c3c(C#N)cnn3c(=O)c2C(C)C)cn1C(C)C` [Compound 409]: the IC50 worked out at 44 nM.

Turning to `CC(C)c1c(-c2cc(C(F)(F)F)nn2C)[nH]c2c(C#N)cnn2c1=O` [Compound 410], the IC50 was 39 nM.

As to `CC(C)c1c(-c2ccn(C(C)C)n2)[nH]c2c(C#N)cnn2c1=O` [Compound 411], the IC50 stood at 35 nM.

`CC(C)c1c(-c2cc(C3CC3)n(C3CCCC3)n2)[nH]c2c(C#N)cnn2c1=O` [Compound 412]: the IC50 came out at 46 nM.

For the compound `CC(C)c1c(-c2cc(C3CC3)nn2C2CCCC2)[nH]c2c(C#N)cnn2c1=O` [Compound 413], the IC50 came to 110 nM.

Turning to `CC(C)c1c(-c2ccn(C3CCCC3)n2)[nH]c2c(C#N)cnn2c1=O` [Compound 414], the IC50 is 14 nM.

(Values after patent US10035801B2, “Pyrazolo compounds and uses thereof” (CONSTELLATION PHARMACEUTICALS, INC., priority 2013, dated 2018).)
